Measurements as given in PubChem BioAssay (NCI).
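Tested at 5 concentrations; 48 h exposure; 96-well plates; endpoints linearly interpolated, else capped at highest concentration. GI50 = concentration required for 50% inhibition of growth. TGI: total growth inhibition.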

Tests used:
Assay in all cases: NCI-60 cell line screen, 48 h
BT-549 breast = test system: BT-549 breast
UO-31 renal = test system: UO-31 renal
U251 CNS = test system: U251 CNS
NCI-H460 lung = test system: NCI-H460 lung
ACHN renal = test system: ACHN renal
NCI-H522 lung = test system: NCI-H522 lung
SK-MEL-5 melanoma = test system: SK-MEL-5 melanoma
MDA-MB-231 breast = test system: MDA-MB-231 breast
NCI-H226 lung = test system: NCI-H226 lung
SR leukemia = test system: SR leukemia

Row | SMILES | GI50 (BT-549 breast) [µM] | TGI (BT-549 breast) [µM] | GI50 (UO-31 renal) [µM] | TGI (UO-31 renal) [µM] | GI50 (U251 CNS) [µM] | TGI (U251 CNS) [µM] | GI50 (NCI-H460 lung) [µM] | TGI (NCI-H460 lung) [µM] | GI50 (ACHN renal) [µM] | TGI (ACHN renal) [µM] | GI50 (NCI-H522 lung) [µM] | TGI (NCI-H522 lung) [µM] | GI50 (SK-MEL-5 melanoma) [µM] | TGI (SK-MEL-5 melanoma) [µM] | GI50 (MDA-MB-231 breast) [µM] | TGI (MDA-MB-231 breast) [µM] | GI50 (NCI-H226 lung) [µM] | TGI (NCI-H226 lung) [µM] | GI50 (SR leukemia) [µM] | TGI (SR leukemia) [µM]
1 | O=C(O)c1cccc(COc2ccc([N+](=O)[O-])cc2Cl)c1 | 53.4 | > 100 | > 100 | > 100 | > 100 | > 100 | > 100 | > 100 | > 100 | > 100 | 18.4 | 93 | 40.1 | > 100 | > 100 | > 100 |  |  |  | 
2 | CC(C)[C@H](O)C(=O)N[C@@H](C)C(=O)N[C@@H]1C(=O)N(C)CCc2ccccc21 | > 100 | > 100 | > 100 | > 100 | > 100 | > 100 | > 100 | > 100 | > 100 | > 100 | > 100 | > 100 | > 100 | > 100 | > 100 | > 100 | > 100 | > 100 | > 100 | > 100
3 | N[C@H](CCC(=O)N[C@@H](Cc1c[nH]c2ccccc12)C(=O)O)C(=O)O | > 100 | > 100 | > 100 | > 100 | > 100 | > 100 | > 100 | > 100 | > 100 | > 100 | > 100 | > 100 | > 100 | > 100 | > 100 | > 100 | > 100 | > 100 | > 100 | > 100
4 | Nc1ccccc1O.O.O=C(O)C1[O][Sb][O]C1C(=O)O (stereo unspecified) | 14.9 | 30.6 | 9.34 | 24.5 | 13.8 | 27.8 | 21.6 | 58.5 | 16.1 | 29.8 | 2.17 | 6.24 | 1.77 | 3.99 | 23.6 | > 71.7 | > 100 | > 100 | 2.42 | 50.6
5 | COc1cc2c(cc1O)CCN[C@]21CS[C@@H]2c3c(OC(C)=O)c(C)c4c(c3[C@H](COC1=O)N1[C@@H]2[C@H]2c3c(cc(C)c(OC)c3O)C[C@@H]([C@@H]1O)N2C)OCO4 |  | 0.00612 |  |  |  | 1.02 |  | 0.808 |  |  |  | 0.00746 |  | 0.00433 |  | 0.0199 | 0.00313 | 0.00582 |  | 10.5
6 | CN(C)CCNCCN |  | > 100 |  | > 100 |  | > 100 |  | > 100 |  | > 100 |  | > 100 |  | > 100 |  | > 100 |  | > 100 |  | > 100
7 | ClC(Cl)=C1C(=C(Cl)Cl)C(Cl)(Cl)C1(Cl)Cl |  | 13.4 |  | 9.07 |  | 13.9 |  | 16.6 |  | 8.81 | 0.287 | 0.304 |  | 9.98 |  | 4.81 | 0.422 | 1.89 |  | 3.46
8 | COc1ccc(C(CC(=O)c2ccc3c(c2)OCO3)c2c(O)c3ccccc3oc2=O)cc1OC (stereo unspecified) |  | > 100 |  | > 100 |  | > 100 |  | > 100 |  | > 100 |  | > 100 |  | > 100 |  | > 100 |  | > 100 |  | 
9 | COC(=O)c1cc2c(o1)-c1nccc3c1c(nc1ccccc13)C2=O | 4.05 | 18.2 | 5.49 | 24.3 | 5.05 | 38.9 | 12.2 | 35 | 2.27 | 14.7 |  |  | 1.2 | 4.69 | 5.1 | 39.5 | 8.08 | 25.4 | 0.519 | 2.51
10 | CCC(C)(O)c1cnc(CC(C)C)c(=O)n1O (stereo unspecified) |  | > 100 |  | > 100 |  | > 100 |  | 81.8 |  | > 100 |  |  |  | > 100 |  | > 100 |  |  |  | 62.6
11 | COC(=O)C1C(O)C(C(=O)OC)C(C)N(C)C1C (stereo unspecified) |  | > 100 |  | > 100 |  | > 100 |  | > 100 |  | > 100 |  |  |  | > 100 |  | > 100 |  | > 100 |  | > 100
12 | O=C(Nc1cc(Nc2ncccc2-c2ncnc3nc[nH]c23)ccc1F)c1cc(C(F)(F)F)cc(C(F)(F)F)c1 | 2.87 | 6.54 | 0.319 | 1.99 | 2.88 | > 10 | 1.98 | 5.31 | 1.42 | 4.27 | 2.38 | > 10 | 1.12 | 2.76 | 1.04 | 2.79 | 2.74 | > 10 | 2.09 | 5.67
